From patent USRE49351E1, “Cytoprotective agent” (Biogen MA Inc., priority 2009, dated 2023)
Marks after values point to notes of the source that are not given here.

Assays:
Assay type in all cases: in vivo
[1] = system: mouse cerebral infarction model; test: Mouse cerebral infarction model: infarction area percentage, neurological symptom, edema percentage; settings: evaluated 24 h, mean ± SE, n=6
Excerpt: Using male ddY line mouse (body weight 35 to 45 g), a cerebral infarction model was produced and evaluated about neurological symptoms and the infarction area percentage according to methods similar to the production method and the evaluation method for the Mongolian gerbil cerebral infarction model.
The improvement effectiveness of SMTP-7 and alteplase on the infarction area percentage, the neurological symptom and the edema percentage was compared using the mouse cerebral infarction model. At the same time the dose dependence of the degree of improvement of SMTP-7 was investigated.
SMTP-7 and alteplase were prepared as in Example 2. Ten mg/kg each was administered into the femoral vein 1 hour or 3 hours after the initiation of ischemia in a mouse cerebral infarction model, wherein 10% was administered by a bolus administration, and the rest by continuous administration over 30 min. Further, 0.1 mg/kg or 1 mg/kg of SMTP-7 was administered into the femoral vein 1 hour after the initiation of ischemia in a mouse cerebral infarction model, wherein 10% was administered by a bolus administration, and the rest by continuous administration over 30 min. Six mice were used for each condition.
Twenty four hours after the initiation of the operation neurological symptom of each mouse was examined to rate the neurological symptom. Then the brain of each mouse was extirpated and the infarction area was measured and the infarction area percentage was determined. The edema percentage was determined according to the following formula: Edema percentage (%)=(Volume of the cerebral hemisphere affected by ischemia−Volume of the other side cerebral hemisphere)/Volume of the other side cerebral hemisphere×100 […]

TNF-α = test: Real time RT-PCR of inflammation parameter TNF-α in brain of mouse cerebral infarction model; settings: 10 mg/kg, ipsilesional (right) brain at 24 h, mean ± SE, n=6
Method: (§1) Using the Mouse Cerebral Infarction model changes of parameters related to inflammation among the triprenyl phenol compound (10 mg/kg) administration groups, the alteplase (10 mg/kg) administration groups, and the alteplase (10 mg/kg) and aspirin (10 mg/kg) combined administration group were evaluated by a real time RT-PCR method. As the parameters IL-1β, TNF-α nd IL-6 were selected, which were typical parameters related to inflammation.
(§2) The administrations of SMTP-7 (10 mg/kg) and alteplase (10 mg/kg) were initiated 1 hour or 3 hours after the initiation of ischemia. The administration method was same as Example 3.
(§3) The combined administration of alteplase (10 mg/kg) and aspirin (10 mg/kg) was initiated 3 hours after the initiation of ischemia. Alteplase was administered same as in Example 3, and aspirin was administered by a bolus intravenous injection into the femoral vein.
(§4) The administrations of SMTP-6, SMTP-22, SMTP-25, SMTP-43 and SMTP-44D were initiated 1 hour after the initiation of ischemia. The administration method was same as Example 5.
(§5) After 24 hours of the initiation of the operation, a Krebs-HEPES buffer was perfused from the heart and then the brain was extirpated.
(§6) After preparing brain slices, the fourth slice was divided to the left brain and the right brain, and homogenized respectively with 1 mL of TRIZOL (registered trademark) reagent (Invitrogen). After incubating at room temperature for 5 min, adding chloroform (0.2 mL), and mixing for 15 sec, incubation was carried out at room temperature for 3 min. The samples were centrifuged at 4° C. for 15 min at 12,000×g.
(§7) Since RNA moved to a water layer, the water layer was collected and, after addition of 0.5 mL of isopropyl alcohol, followed by incubation at room temperature for 10 min, centrifuged at 4° C. for 10 min at 12,000×g. Since a pellet was formed in a tube after the centrifugation, the supernatant was removed, and 1 mL of 75% ethanol was added followed by stirring to wash the pellet. The mixture was then centrifuged at 4° C. for 5 min at 7,500×g. After removing again the supernatant, being left for natural drying for 8 min, the pellet containing the RNA was dissolved in 100 μL of RNase-free water. cDNA was produced by reverse transcription of the RNA using a SuperScript (registered trademark) VILOTM cDNA Synthesis Kit (Invitrogen) by a Thermal Cycler 2720 (Applied Biosystems). More particularly, 4 μL of 5×VILOTM Reaction Mix, 2 μL of 10× SuperScript (registered trademark) Enzyme Mix, and 1 μg of each RNA were mixed and diluted to 20 μL with RNase-free water.
(§8) Reverse transcription was conducted using the above samples under the following conditions. After reacting at 25° C. for 10 min, at 42° C. for 60 min, and at 85° C. for 5 min, the product was stored at 4° C. With the cDNA as a template real time RT-PCR was carried out by ABI PRISM 7000 using SYBR (registered trademark) GreenERTM qPCR SuperMix for ABI PRISM (registered trademark; Invitrogen). […]
(§9) Real time RT-PCR was conducted using the above samples under the following conditions. […] Changes of the respective parameters were determined by a calibration curve method. β-actin was measured as an internal control, and the respective parameters were calculated as a relative value based on the β-actin. […]

IL-1β = test: Real time RT-PCR of inflammation parameter IL-1β in brain of mouse cerebral infarction model; settings: 10 mg/kg, ipsilesional (right) brain at 24 h, mean ± SE, n=6
Method: as §1, §2, §3, §4, §5, §6, §7, §8, §9

IL-6 = test: Real time RT-PCR of inflammation parameter IL-6 in brain of mouse cerebral infarction model; settings: 10 mg/kg, ipsilesional (right) brain at 24 h, mean ± SE, n=6
Method: as §1, §2, §3, §4, §5, §6, §7, §8, §9

[2] = 10 mg/kg femoral vein, administration initiated 1 hr after ischemia
[3] = 10 mg/kg femoral vein, administration initiated 3 hr after ischemia
[4] = administration initiated 1 hr after ischemia
[5] = administration initiated 3 hr after ischemia
[6] = 0.1 mg/kg femoral vein, administration 1 hour after ischemia
[7] = 1 mg/kg femoral vein, administration 1 hour after ischemia

Row | Compound | Edema percentage [1, 2] [%] | Infarction area [1, 2] [%] | Neurological scores [1, 2] | Edema percentage [1, 3] [%] | Infarction area [1, 3] [%] | Neurological scores [1, 3] | TNF-α, relative value to β-actin (TNF-α; [4]) | TNF-α, relative value to β-actin (TNF-α; [5]) | IL-1β, relative value to β-actin (IL-1β; [4]) | IL-1β, relative value to β-actin (IL-1β; [5]) | IL-6, relative value to β-actin (IL-6; [4]) | IL-6, relative value to β-actin (IL-6; [5]) | Edema percentage [1, 6] [%] | Infarction area [1, 6] [%] | Neurological scores [1, 6] | Edema percentage [1, 7] [%] | Infarction area [1, 7] [%] | Neurological scores [1, 7]
1 | alteplase [reference compound] | 3.63 ± 2.67 | 6.15 ± 1.94 | 1.17 ± 0.749 | 12.6 ± 1.84 | 11.9 ± 2.26 | 2.50 ± 0.500 | 0.164 ± 0.0332 | 0.381 ± 0.155 | 0.0408 ± 0.0173 | 0.347 ± 0.172**^,## | 0.0582 ± 0.0254 | 0.341 ± 0.138**^,# |  |  |  |  |  | 
2 | CC(C)=CCC/C(C)=C/CC[C@@]1(C)Oc2c(c(O)cc3c2CN(CCC[C@@H](C(=O)O)N2Cc4c(cc(O)c5c4O[C@](C)(CC/C=C(\C)CCC=C(C)C)[C@@H](O)C5)C2=O)C3=O)C[C@@H]1O [SMTP-7] | 5.81 ± 0.967 | 4.87 ± 1.06 | 1.67 ± 0.422 | 6.23 ± 1.07 | 5.05 ± 0.576 | 1.33 ± 0.558 | 0.151 ± 0.0313 | 0.147 ± 0.0293 | 0.0314 ± 0.0171 | 0.0728 ± 0.0380 | 0.0356 ± 0.0138 | 0.0651 ± 0.0308 | 10.15 ± 1.817 | 10.08 ± 2.07 | 2.5 ± 0.5 | 8.81 ± 2.292 | 6.66 ± 0.71 | 2 ± 0.632
3 | CC(C)=CCC/C(C)=C/CCC1(C)Oc2c(c(O)cc3c2CN(C(Cc2c[nH]c4ccccc24)C(=O)O)C3=O)CC1O (stereo not drawn) [SMTP-6] | 9.80 ± 2.74 | 9.81 ± 1.43 | 3 ± 0.447 |  |  |  | 0.261 ± 0.119 |  | 0.165 ± 0.0930 |  | 0.220 ± 0.0850 |  |  |  |  |  |  | 
